The text below walks through data of patent publication US5444055A, “17-hydroxyiminomethyl-5-β, 14 β-androstane derivatives active on the cardiovascular system, processes for their preparation and pharmaceutical compositions containing same” (Sigma-Tau Industrie Farmaceutiche Riunite S.p.A., priority 1992, dated 1995).

The target in assay [1] is T1, Na^+,K^+ -ATPase (Homo sapiens, UniProt P05023). The assay can be described thus: inhibition of the activity of purified Na^+,K^+ -ATPase (hydrolysis of ^32 P-ATP). Format: biochemical.
Assay [2] deals with T1, Na^+,K^+ -ATPase. The experiment in a line: displacement of specific ^3 H-ouabain binding from purified Na^+,K^+ -ATPase receptor.
Assay [3] concerns Na^+,K^+ -ATPase. The conditions noted are these: literature report; cited from earlier work.
The conditions of assay [4]: literature report; cited from earlier work.
Assay [5] in a line: prevention of development of hypertension, 5-week oral treatment, tail cuff SBP and HR. Format: in vivo. The conditions noted are these: 5 week-treatment, 20 mg/Kg/os daily in Methocel 0.5% w/v, 7 rats (MHS); for SBP: controls 173 +/- 4.5; for HR: controls 382 +/- 8.3.
The mark [6] stands for this setting: purified Na^+,K^+ -ATPase, ^32 P-ATP hydrolysis, read-out: Inhibitory Activity -log IC50 (converted).
Setting [7] is: read-out: Binding ^3 H-Ouab. Displacement -log IC50 (converted).

In the case of `CN(C)CCO/N=C/[C@H]1CC[C@]2(O)[C@@H]3CC[C@@H]4CC(=NNC(=N)N)CC[C@]4(C)[C@H]3CC[C@]12C` (mixture of isomers) [Comp. I-aw, 3-((EZ)-Guanidinoimino)-17β-((E)-2-dimethylaminoethoxyiminomethyl)-5β-androstane-14β-ol], the IC50 on Na^+,K^+ -ATPase [1] (setting [6]) is 1260 nM; at Na^+,K^+ -ATPase [2] (setting [7]), 79.4 nM.
On the same counts, the results for `CN(C)CCON=C1CC[C@@]2(C)[C@H](CC[C@@H]3[C@@H]2CC[C@]2(C)[C@@H](/C=N/OCCN(C)C)CC[C@]32O)C1` (mixture of isomers) [Comp. I-az] are 2000 nM and 126 nM.
Regarding `C[C@]12CC[C@H](O)C[C@H]1CC[C@@H]1[C@@H]2CC[C@]2(C)C(=NNC(=N)N)CC[C@]12O` [17-guanidinoimino-5β-androstane-3β,14β-diol], the “inhibition of Na^+,K^+-ATPase” value with Na^+,K^+ -ATPase [3] is on record as “weak inhibitors of Na^+,K^+ -ATPase”. For the same compound, in assay [4], the positive inotropic activity result is recorded as “weak positive inotropic agents”.
On to `C[C@]12CC[C@H](O)C[C@H]1CC[C@@H]1[C@@H]2CC[C@]2(C)[C@@H](C=NNC(=N)N)CC[C@]12O` [17β-guanidinoiminomethyl-5β-androstane-3β,14β-diol], for which, in the assay with Na^+,K^+ -ATPase [3], the “inhibition of Na^+,K^+-ATPase” value is on record as “weak inhibitors of Na^+,K^+ -ATPase”. Further, the positive inotropic activity result in assay [4] is reported as “weak positive inotropic agents”.
On to `C[C@]12CC[C@H](O)C[C@H]1CC[C@@H]1[C@@H]2CC[C@]2(C)[C@@H](C=NO)CC[C@]12O` [17β-hydroxyiminomethyl-5β-androstane-3b,14b-diol], for which the “inhibition of Na^+,K^+-ATPase” value in the assay on Na^+,K^+ -ATPase [3] is on record as “not to inhibit Na^+,K^+ -ATPase”.
Take `CO/N=C/[C@H]1CC[C@]2(O)[C@@H]3CC[C@@H]4C[C@@H](O)CC[C@]4(C)[C@H]3CC[C@]12C` [Comp. I-aa, (E)-17β-Methoxyiminomethyl-5β-androstane-3β,14β-diol]: the IC50 against Na^+,K^+ -ATPase [1] is 31600 nM; at Na^+,K^+ -ATPase [2] (setting [7]), 3980 nM.
In the case of `C[C@]12CC[C@H](O)C[C@H]1CC[C@@H]1[C@@H]2CC[C@]2(C)[C@@H](/C=N/OCCN)CC[C@]12O` [Comp. I-ab, (E)-17β-(2-Aminoethoxyimino)methyl-5β-androstane-3β-diol], the IC50 is 1580 nM at Na^+,K^+ -ATPase [1] (setting [6]) and 79.4 nM on Na^+,K^+ -ATPase [2] (setting [7]).
For the compound `CN(C)CCO/N=C/[C@H]1CC[C@]2(O)[C@@H]3CC[C@@H]4C[C@@H](O)CC[C@]4(C)[C@H]3CC[C@]12C` [Comp. I-ad, (E)-17β-(2-Dimethylaminoethoxyimino)methyl-5β-androstane-3β,14 β-diol], the concentration for half-maximal inhibition (IC50) was 1260 nM at Na^+,K^+ -ATPase [1] and 39.8 nM at Na^+,K^+ -ATPase [2] (setting [7]). For the same compound, in assay [5], the SBP is listed as 148 +/- 4.0 mm Hg. Also, the HR in assay [5] is 375 +/- 10.5 beats/min.
Turning to `CN(C)CCCO/N=C/[C@H]1CC[C@]2(O)[C@@H]3CC[C@@H]4C[C@@H](O)CC[C@]4(C)[C@H]3CC[C@]12C` [Comp. I-af, (E)-17β-(3-Dimethylaminopropoxyimino)methyl-5.β-androstane-3β,14β-diol], the concentration for half-maximal inhibition (IC50) on Na^+,K^+ -ATPase [1] is 2510 nM; at Na^+,K^+ -ATPase [2] (setting [7]), 158 nM.
On the same counts, the results for `C[C@]12CC[C@H](O)C[C@H]1CC[C@@H]1[C@@H]2CC[C@]2(C)[C@@H](/C=N/OCCNC(=N)N)CC[C@]12O` [Comp. I-ag, (E)-17β-(2-Guanidinoethoxyimino)methyl-5β-androstane-3β,14β-diol] are 3160 nM and 158 nM.
Regarding `C/C(=N\OCCN(C)C)[C@H]1CC[C@]2(O)[C@@H]3CC[C@@H]4C[C@@H](O)CC[C@]4(C)[C@H]3CC[C@]12C` [Comp. I-ai, (E)-20-(2-Dimethylaminoethoxyimino)-5β-pregnane-3β,14β-diol], the IC50 is 2000 nM on Na^+,K^+ -ATPase [1] (setting [6]) and 79.4 nM on Na^+,K^+ -ATPase [2] (setting [7]).
As for `CN(C)CCO/N=C/[C@@]1(O)CC[C@]2(O)[C@@H]3CC[C@@H]4C[C@@H](O)CC[C@]4(C)[C@H]3CC[C@]12C` [Comp. I-ak, (E)-17β-(2-Dimethylaminoethoxyimino)methyl-5β-androstane-3β,14β,17α-triol], the figures for the IC50 at Na^+,K^+ -ATPase [1] (setting [6]) and at Na^+,K^+ -ATPase [2] (setting [7]) were 39800 nM and 1000 nM, respectively.
For `CO/N=C/[C@H]1CC[C@]2(O)[C@@H]3CC[C@@H]4C[C@@H](OCCCN)CC[C@]4(C)[C@H]3CC[C@]12C` [Comp. I-aq, (E)-3β-(3-Aminopropoxy)-17β-methoxyiminomethyl-5β-androstane-14β-ol], the values for the IC50 on Na^+,K^+ -ATPase [1] and at Na^+,K^+ -ATPase [2] (setting [7]) were 15800 nM and 631 nM, respectively.
Consider `CO/N=C/[C@H]1CC[C@]2(O)[C@@H]3CC[C@@H]4C[C@@H](OCCN5CCCC5)CC[C@]4(C)[C@H]3CC[C@]12C` [Comp. I-ar], for which the half-inhibitory concentration (IC50) on Na^+,K^+ -ATPase [1] (setting [6]) was 15800 nM. The IC50 at Na^+,K^+ -ATPase [2] (setting [7]) was 794 nM. In assay [5], the SBP is on record as 158 +/- 4.0 mm Hg and the HR is on record as 385 +/- 6.4 beats/min.
In the case of `CN(C)CCO/N=C/[C@H]1CC[C@]2(O)[C@@H]3CC[C@@H]4C[C@@H](OCCCN)CC[C@]4(C)[C@H]3CC[C@]12C` [Comp. I-as, (E)-3β-(3-Aminopropoxy)-17β-(2-dimethylaminoethoxyimino)methyl-5β-androstane-14β-ol], the IC50 at Na^+,K^+ -ATPase [1] (setting [6]) is 316 nM. On Na^+,K^+ -ATPase [2] (setting [7]), the 50% inhibitory concentration (IC50) is 39.8 nM. Besides, in assay [5], the SBP is on record as 149 +/- 7.9 mm Hg and the HR is listed as 377 +/- 9.5 beats/min.
For `CN(C)CCO/N=C/[C@H]1CC[C@]2(O)[C@@H]3CC[C@@H]4C[C@@H](OCCN5CCCC5)CC[C@]4(C)[C@H]3CC[C@]12C` [Comp. I-au, (E)-3β-(2-(1-Pyrrolidinyl)ethoxy)-17β-(2-dimethylaminoethoxyimino)methyl-5β-androstane-3β,14β-diol], the IC50 on Na^+,K^+ -ATPase [1] (setting [6]) is 398 nM; on Na^+,K^+ -ATPase [2], 50.1 nM.

Broadly, the IC50 is the concentration at which inhibition is half-maximal.
